According to US12195490B2, “STRAD-binding agents and uses thereof” (The Regents of the University of California, priority 2020, dated 2025):

molecular target: T1, LKB1 (Homo sapiens, UniProt Q15831+Q7RTN6); experiment: in vitro LKB1 functional activity; assay type: biochemical; details: APA analogs
T1 sequence (Q15831 1-433): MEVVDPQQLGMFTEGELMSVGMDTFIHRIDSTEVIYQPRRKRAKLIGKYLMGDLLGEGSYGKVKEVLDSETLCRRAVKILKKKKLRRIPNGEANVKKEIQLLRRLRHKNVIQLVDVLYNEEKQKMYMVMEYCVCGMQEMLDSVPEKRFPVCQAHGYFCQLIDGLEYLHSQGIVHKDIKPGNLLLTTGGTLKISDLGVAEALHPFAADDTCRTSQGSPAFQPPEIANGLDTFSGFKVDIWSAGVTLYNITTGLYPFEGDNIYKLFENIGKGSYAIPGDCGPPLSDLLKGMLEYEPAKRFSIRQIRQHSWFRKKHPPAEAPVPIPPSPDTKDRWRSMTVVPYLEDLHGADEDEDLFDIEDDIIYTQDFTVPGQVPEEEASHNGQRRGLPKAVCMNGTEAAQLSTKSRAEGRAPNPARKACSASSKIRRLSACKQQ
T1 sequence (Q7RTN6 1-431): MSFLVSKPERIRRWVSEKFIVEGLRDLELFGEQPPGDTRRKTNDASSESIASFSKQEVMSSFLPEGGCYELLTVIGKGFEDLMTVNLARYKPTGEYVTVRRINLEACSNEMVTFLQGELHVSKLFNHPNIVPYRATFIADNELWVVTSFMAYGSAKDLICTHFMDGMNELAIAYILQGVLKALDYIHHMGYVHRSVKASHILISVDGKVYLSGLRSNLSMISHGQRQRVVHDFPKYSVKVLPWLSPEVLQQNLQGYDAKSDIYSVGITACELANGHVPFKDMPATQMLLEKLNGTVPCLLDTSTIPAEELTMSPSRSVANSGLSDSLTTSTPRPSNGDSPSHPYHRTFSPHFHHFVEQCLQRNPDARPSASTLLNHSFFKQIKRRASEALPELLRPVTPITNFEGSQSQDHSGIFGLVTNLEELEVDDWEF
T1 sequence (Q9Y376 1-341 partner): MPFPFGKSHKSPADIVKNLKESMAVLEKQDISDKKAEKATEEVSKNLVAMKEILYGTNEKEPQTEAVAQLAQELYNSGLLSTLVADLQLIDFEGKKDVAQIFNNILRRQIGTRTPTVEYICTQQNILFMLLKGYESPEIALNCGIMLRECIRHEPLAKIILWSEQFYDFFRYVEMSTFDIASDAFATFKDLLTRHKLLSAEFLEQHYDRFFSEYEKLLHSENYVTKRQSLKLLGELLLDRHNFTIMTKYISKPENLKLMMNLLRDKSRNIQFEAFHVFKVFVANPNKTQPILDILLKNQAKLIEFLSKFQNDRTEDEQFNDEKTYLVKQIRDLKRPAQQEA

Row | SMILES | LKB1 % Act. Increase
1 | CS(=O)(=O)c1ccc(-c2cnc(N)c(C(=O)Nc3ccc(S(N)(=O)=O)cc3)n2)cc1 [SU20668-0309, 3-amino-6-(4-(methylsulfonyl)phenyl)-N-(4-sulfamoylphenyl)pyrazine-2-carboxamide] | C (C=199-1000%)
2 | Cc1ccc(-c2cnc(N)c(C(=O)Nc3ccc(P(=O)(O)O)cc3)n2)cc1 [SU20668-0196, 4-(3-amino-6-p-tolylpyrazine-2-carboxamido)phenylphosphonic acid] | C (C=199-1000%)
3 | CCOP(=O)(O)CS(=O)(=O)c1ccc(NC(=O)c2nc(-c3ccc(C)cc3)cnc2N)cc1 [SU20668-0338, ethyl hydrogen (((4-(3-amino-6-(p-tolyl)pyrazine-2-carboxamido)phenyl)sulfonyl)methyl)phosphonate] | D (D=<1000%)
4 | CCOP(=O)(OCC)C(C)(C)S(=O)(=O)c1ccc(NC(=O)c2nc(-c3ccc(C)cc3)cnc2N)cc1 [SU20668-0486, diethyl 2-(4-(3-amino-6-p-tolylpyrazine-2-carboxamido)phenylsulfonyl)propan-2-ylphosphonate] | B (B=399-2000%)
5 | Cc1ccc(-c2cnc(N)c(C(=O)Nc3ccc(S(=O)(=O)CC(=O)O)cc3)n2)cc1 [SU20668-0310, 2-(4-(3-amino-6-p-tolylpyrazine-2-carboxamido)phenylsulfonyl)acetic acid] | D (D=<1000%)
6 | CCOP(C)(=O)COc1ccc(NC(=O)c2nc(-c3ccc(C)cc3)cnc2N)cc1 (stereo not shown) [SU20668-0476] | D (D=<1000%)
7 | Cc1ccc(-c2cnc(N)c(C(=O)Nc3ccc(NS(C)(=O)=O)cc3)n2)cc1 [SU20668-0281] | D (D=<1000%)
8 | CCP(=O)(CS(=O)(=O)c1ccc(NC(=O)c2nc(-c3ccc(C)cc3)cnc2N)cc1)OC (stereo not shown) [SU20668-0514, methyl (4-(3-amino-6-p-tolylpyrazine-2-carboxamido)phenylsulfonyl)methyl(ethyl)phosphinate] | B (B=399-2000%)
9 | Cc1ccc(-c2cnc(N)c(C(=O)Nc3ccc(C(=O)O)c(F)c3)n2)cc1 [SU20668-0299, 4-(3-amino-6-p-tolylpyrazine-2-carboxamido)-2-fluorobenzoic acid] | D (D=<1000%)
10 | Cc1ccc(-c2cnc(N)c(C(=O)Nc3ccc(S(=O)(=O)NC(=O)C(C)C)cc3)n2)cc1 [SU20668-0327, 3-amino-N-(4-(N-isobutyrylsulfamoyl)phenyl)-6-p-tolylpyrazine-2-carboxamide] | D (D=<1000%)
11 | Cc1ccc(-c2cnc(N)c(C(=O)Nc3ccc(S(=O)(=O)NC(=O)CCc4ccccc4)cc3)n2)cc1 [SU20668-0328, 3-amino-N-(4-(N-(3-phenylpropanoyl)sulfamoyl)phenyl)-6-p-tolylpyrazine-2-carboxamide] | D (D=<1000%)
12 | COP(=O)(CS(=O)(=O)c1ccc(NC(=O)c2nc(-c3ccc(C)cc3C)cnc2N)cc1)OC [SU20668-0450, dimethyl (4-(3-amino-6-(2,4-dimethylphenyl)pyrazine-2-carboxamido)phenylsulfonyl)methylphosphonate] | D (D=<1000%)
13 | COP(=O)(CS(=O)(=O)c1ccc(NC(=O)c2nc(-c3ccc(C)s3)cnc2N)cc1)OC [SU20668-0448, dimethyl (4-(3-amino-6-(5-methylthiophen-2-yl)pyrazine-2-carboxamido)phenylsulfonyl)methylphosphonate] | C (C=199-1000%)

Continued, values first:

Row | LKB1 % Act. Increase | SMILES
14 | D (D=<1000%) | CC(=O)NS(=O)(=O)c1ccc(NC(=O)c2nc(-c3cnc(N)nc3)cnc2N)cc1 [SU20668-0372, N-(4-(N-acetylsulfamoyl)phenyl)-3-amino-6-(2-aminopyrimidin-5-yl)pyrazine-2-carboxamide]
15 | B (B=399-2000%) | Cc1ccc(-c2cnc(N)c(C(=O)Nc3ccc(S(=O)(=O)CC4CCO4)cc3)n2)cc1 (stereo not shown) [SU20668-0500, 3-amino-N-(4-(oxetan-2-ylmethylsulfonyl)phenyl)-6-p-tolylpyrazine-2-carboxamide]
16 | C (C=199-1000%) | Cc1ccc(-c2cnc(N)c(C(=O)Nc3ccc(S(=O)(=O)Nc4cc(C)on4)cc3)n2)cc1 [SU20668-0467, 3-amino-N-(4-(N-(5-methylisoxazol-3-yl)sulfamoyl)phenyl)-6-p-tolylpyrazine-2-carboxamide]
17 | B (B=399-2000%) | Cc1ccc(-c2cnc(N)c(C(=O)Nc3ccc(S(=O)(=O)CP(C)(C)=O)cc3)n2)cc1 [SU20668-0492, 3-amino-N-[4-(dimethylphosphorylmethylsulfonyl)phenyl]-6-(p-tolyl)pyrazine-2-carboxamide]
18 | C (C=199-1000%) | CC(=O)NS(=O)(=O)c1ccc(NC(=O)c2nc(-c3ccc(CO)cc3)cnc2N)cc1 [SU20668-0348, N-(4-(N-acetylsulfamoyl)phenyl)-3-amino-6-(4-(hydroxymethyl)phenyl)pyrazine-2-carboxamide]
19 | D (D=<1000%) | CC(=O)NS(=O)(=O)c1ccc(NC(=O)c2nc(-c3cccc(N)c3)cnc2N)cc1 [SU20668-0350, N-(4-(N-acetylsulfamoyl)phenyl)-3-amino-6-(3-aminophenyl)pyrazine-2-carboxamide]
20 | D (D=<1000%) | CC(=O)NS(=O)(=O)c1ccc(NC(=O)c2nc(-c3ccc(C)cc3)cnc2N)cc1F [SU20668-0483]
21 | B (B=399-2000%) | CCP(=O)(CC)CS(=O)(=O)c1ccc(NC(=O)c2nc(-c3ccc(C)cc3)cnc2N)cc1 [SU20668-0491, 3-amino-N-(4-((diethylphosphoryl)methylsulfonyl)phenyl)-6-p-tolylpyrazine-2-carboxamide]
22 | C (C=199-1000%) | CC(=O)NS(=O)(=O)c1ccc(NC(=O)c2nc(-c3cc[nH]n3)cnc2N)cc1 [SU20668-0352, N-(4-(N-acetylsulfamoyl)phenyl)-3-amino-6-(1H-pyrazol-3-yl)pyrazine-2-carboxamide]
23 | D (D=<1000%) | CC(=O)NS(=O)(=O)c1ccc(NC(=O)c2nc(-c3ccc(C)c(F)c3)cnc2N)cc1 [SU20668-0390, N-(4-(N-acetylsulfamoyl)phenyl)-3-amino-6-(3-fluoro-4-methylphenyl)pyrazine-2-carboxamide]
24 | D (D=<1000%) | CC(=O)NS(=O)(=O)c1ccc(NC(=O)c2nc(-c3ccc(Cl)cc3)cnc2N)cc1 [SU20668-0391, N-(4-(N-acetylsulfamoyl)phenyl)-3-amino-6-(4-chlorophenyl)pyrazine-2-carboxamide]
25 | D (D=<1000%) | CC(=O)NS(=O)(=O)c1ccc(NC(=O)c2nc(-c3ccc(OC(F)(F)F)cc3)cnc2N)cc1 [SU20668-0392, N-(4-(N-acetylsulfamoyl)phenyl)-3-amino-6-(4-(trifluoromethoxy)phenyl)pyrazine-2-carboxamide]
26 | C (C=199-1000%) | CCS(=O)(=O)c1cccc(-c2cnc(N)c(C(=O)Nc3ccc(S(=O)(=O)NC(C)=O)cc3)n2)c1 [SU20668-0373, N-(4-(N-acetylsulfamoyl)phenyl)-3-amino-6-(3-(ethylsulfonyl)phenyl)pyrazine-2-carboxamide]
27 | D (D=<1000%) | Cc1ccc(-c2cnc(N)c(C(=O)Nc3ccc(S(=O)(=O)CP(=O)(OC(C)C)OC(C)C)cc3)n2)cc1 [SU20668-0484, diisopropyl (4-(3-amino-6-p-tolylpyrazine-2-carboxamido)phenylsulfonyl)methylphosphonate]
28 | C (C=199-1000%) | CC(=O)NS(=O)(=O)c1ccc(NC(=O)c2nc(-c3ccc(N4CCN(C)CC4)cc3)cnc2N)cc1 [SU20668-0347, N-(4-(N-acetylsulfamoyl)phenyl)-3-amino-6-(4-(4-methylpiperazin-1-yl)phenyl)pyrazine-2-carboxamide]
29 | D (D=<1000%) | COc1cc(F)c(-c2cnc(N)c(C(=O)Nc3ccc(S(=O)(=O)NC(C)=O)cc3)n2)c(F)c1 [SU20668-0375, N-(4-(N-acetylsulfamoyl)phenyl)-3-amino-6-(2,6-difluoro-4-methoxyphenyl)pyrazine-2-carboxamide]
30 | C (C=199-1000%) | CC(=O)NS(=O)(=O)c1ccc(NC(=O)c2nc(-c3ccc(S(N)(=O)=O)cc3)cnc2N)cc1 [SU20668-0351, N-(4-(N-acetylsulfamoyl)phenyl)-3-amino-6-(4-sulfamoylphenyl)pyrazine-2-carboxamide]
31 | C (C=199-1000%) | Cc1ccc(-c2cnc(N)c(C(=O)Nc3ccc(S(C)(=N)=O)cc3)n2)cc1 (stereo not shown) [SU20668-0490]
